According to patent publication US9221900B2, “Methods for identifying safe and functional humanized antibodies” (AC IMMUNE S.A., priority 2010, dated 2015):

Key:
microglia = experiment: Confocal imaging of microglial uptake of Aβ1-42 oligomers; assay type: cell-based, rat; conditions: for Aβ1-42 oligomer internalization into microglia, rank order: primary cortical microglia
Method: Aβ1-42 oligomers are shown in red, and blue is DAPI staining of DNA to show the microglia itself (A). An apical-to-distal slice was obtained from a three-dimensional image rendered from Z-stacks. Confocal imaging was performed on mixed cortical cells labeled for Aβ (red) and stained with DAPI (blue) as described in the Example Section under Materials and Methods. Microglia were identified and scanned for the maximum fluorescence intensity through a series of confocal stacks representing intracellular locations (B), and the total area of fluorescent signal above a minimum threshold was quantified (C). Each mark on the graph represents the total area of Aβ stained within a single cell. A minimum of 20 cells were analyzed for each treatment condition. Data were compared using one-way ANOVA followed by Tukey post-hoc multiple comparison. Means (±SEM) are shown. […] Red is Iba1 staining, green is HyLite Fluor-488-labeled Aβ1 42, and blue is DAPI staining. […] Statistical analysis was done using one-way ANOVA followed by Tukey post-hoc multiple comparison.
Cells were grown on a glass coverslips. Following treatment, cells were quickly washed with PBS and then fixed with 4% paraformaldehyde for 20 min. After thorough washes, cells were immersed in 100% methanol for 10 min at −20° C. They were then washed again and incubated in a blocking solution, PBS containing 10% normal goat serum for 1 h at room temperature. After an overnight incubation with the primary antibody, cells were washed and incubated for 2 h with the secondary antibody, then washed and mounted on glass slides using ProLong Gold antifade reagent (Invitrogen). Epifluorescence and confocal images were acquired on a LSM 700 inverted microscope from Zeiss, using a 63× lens. Fluorescence intensity was measured in cell bodies delineated by saturated epifluorescence pictures. Z-stacks were rendered into a three-dimensional image using ImageJ 1.42 (National Institutes of Health, freeware) from which an apical to distal slice containing the labeled proteins was obtained. Cells treated with HyLite Fluor-488-tagged Aβ1-42 were treated in the same way except no primary or secondary antibodies were used to label for Aβ1-42.

FcγRIIIa-V158 = molecular target: T1, FcγRIIIa-V158 (Homo sapiens, UniProt P08637, F176V); experiment: FcγR binding ELISA, FcγRIIIa-V158; conditions: cross-linked IgG mAb
T1 construct: fusion proteins containing the extracellular domain of the receptor γ-chain
Method: The ability of these different monoclonal antibody backbones to internalize Aβ1-42 oligomers into microglia was then compared using confocal imaging on Aβ1-42 oligomer treated primary cortical microglia. […] To verify that microglia are indeed the cells taking up Aβ1-42 complexed to monoclonal antibodies, the study was repeated using HiLyte Fluor-488 tagged Aβ1-42 and co-stained for the microglial marker Iba1.
(§1) The binding of test antibodies to a panel of human Fcγ receptors (FcγRs) was measured using enzyme-linked immunosorbent assay (ELISA). Human FcγRs (Genentech, Inc., CA) are fusion proteins containing the extracellular domain of the receptor γ-chain with a Gly/6xHis/glutathione S transferase (GST) polypeptide tag at the C terminus. A monoclonal antibody with human IgG1 framework was used as the positive control (IgG1 control) in this experiment. Plates were coated with a mouse monoclonal anti GST antibody (Genentech, Inc.) in a 0.05 M sodium carbonate buffer (pH 9.6) overnight at 4° C. After blocking with an assay buffer containing phosphate buffered saline (PBS), 0.5% BSA, and 0.05% Tween-20, the plates were incubated with FcγRs at room temperature for 1 h. Human FcγRs were immobilized to the plate via interaction with the anti-GST coating. […] Diluted samples were applied as monomeric forms for the high affinity receptor (FcγRIa), or multimeric forms for the low affinity receptors (FcγRIIa, FcγRIIb, and FcγRIIIa). […] The antibodies bound to the FcγRs were detected with horseradish peroxidase (HRP)-conjugated F(ab′)2 fragment of goat anti human F(ab′)2 (Jackson ImmunoResearch Laboratories; West Grove, Pa.). […] The reaction was terminated with 1 M H3PO4, and absorbance at 450 nm with reference at 650 nm was measured on a plate reader (Molecular Devices, Sunnyvale, Calif.). Binding curves were generated by plotting the mean absorbance values from duplicates of sample dilutions against the respective sample absorbance.

[1] = system: human Fcγ receptors (FcγRIa, FcγRIIa, FcγRIIb, FcγRIIIa); experiment: FcγR binding ELISA, panel of human Fcγ receptors; conditions: cross-linked antibody
Method: FIG. 10 provides graphs and immunocytochemical images corresponding to the experiments described in Example 6.5. […] These findings are consistent with published data for human IgG4 antibodies (Gessner et al., 1998) and IgG1 antibodies carrying the D265A mutation (Shields et al., 2001).
as §1, with “FcγRIIIa). The multimeric forms of test antibodies were generated by cross linking F(ab′)2 fragment of goat anti human κ-chain (MP Biomedicals, Solon, Ohio), with test monoclonal antibody at an approximate molar ratio of 3:1. The plates were incubated with FcγRs at room temperature for 2 h.” for “FcγRIIIa).”

p38MAPK = experiment: Phospho-p38MAPK ELISA; assay type: cell-based, rat; conditions: 10 μM Aβ1-42 oligomers for 30 min, 100 μg/mL antibody
Method: FIG. 5 provides graphs and immunocytochemical images corresponding to the experiments described in Example 6.6. […] An IgG1 monoclonal antibody not binding to Aβ was used as control. The activity of p38MAP K was measured by a phospho-specific ELISA as described in Methods (A). The mean (±SEM) of 4 independent experiments is shown. Statistical analysis was done using one-way ANOVA followed by Tukey post-hoc multiple comparison. Activation of p38MAPK with Aβ1-42 oligomers complexed with monoclonal antibody was specific to microglia (B). Cells were treated as described above and then stained for phospho-p38MAP K (green), with Iba1 (red), and with DAPI (blue). […] Pure microglia from CX3CR1-GFP mice were used to verify microglia-specific p38 activity (C). […] A cytotoxicity assay using the MTT readout was performed after 24 h. The mean (±SEM) of 4 experiments is shown. […]
Rat cortical cultures were seeded onto poly-L-lysine coated 6-well cell-culture plates (Costar, Cambridge, Mass., USA) and used at DIV 5. […] Protein concentration was determined by the BCA assay (Pierce, Rockford, Ill., USA). For semi-quantitative measure of p38MAPK activation, a rat phospho-p38MAPK colorimetric ELISA kit was used (Cell Signaling Technology, Beverly, Mass., USA), following the manufacturer's instructions. Plates were read on a spectrophotometric microplate reader (Tecan) at a […]. […]

T1 sequence (P08637 17-208 F176V): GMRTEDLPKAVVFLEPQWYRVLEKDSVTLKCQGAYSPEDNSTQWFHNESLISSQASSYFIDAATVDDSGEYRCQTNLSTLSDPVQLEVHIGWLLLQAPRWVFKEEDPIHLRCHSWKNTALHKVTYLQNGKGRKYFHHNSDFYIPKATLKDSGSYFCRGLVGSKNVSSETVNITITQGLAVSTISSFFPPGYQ

| binding to FcγRIIIa-V158, hierarchy (FcγRIIIa-V158) | Substance | microglial morphology and Iba1 staining (microglia; Aβ1-42 in combination with antibody) | Aβ1-42 oligomer internalization into microglia, rank order (microglia) | binding to FcγRs [1] | Aβ1-42 oligomer-induced p38MAPK activity (p38MAPK) | uptake of Aβ1-42 oligomers into microglia (microglia; mixed neuronal cultures, apparent from 30 minutes) |
| --- | --- | --- | --- | --- | --- | --- |
| MABT-IgG>MABT>MABT-IgG1-D265A | MABT-IgG1: same antigen binding sequences as MABT on human IgG1 wild-type backbone with full FcγR-binding capacity | more condensed nuclei and brighter Iba1 staining | MABT-IgG1>MABT>MABT-IgG1-D265A | bound to all FcRγ receptors with activities similar to the positive non-Aβ-binding IgG1 control | increased the Aβ1-42 oligomer-induced p38MAPK activity even further |  |
| MABT-IgG>MABT>MABT-IgG1-D265A | MABT: humanized anti-Aβ monoclonal antibody of IgG4 isotype, affinity matured and humanized form of mouse mMABT |  | MABT-IgG1>MABT>MABT-IgG1-D265A | substantially reduced binding to all the FcγRs | did not reduce the Aβ1-42 oligomer-induced p38MAPK activity, but rather showed a trend towards higher activity | mediated rapid uptake of Aβ1-42 oligomers into cellular profiles likely to be microglia |
